Tests used:
HEP-G2-Zellen = assay: Inhibition of cholesterol biosynthesis: incorporation of 14C sodium acetate into cholesterol in HEP-G2 cell monolayers; format: cell-based; conditions: Homo sapiens; for inhibition at 0.1 µM: HepG2, Konzentration im Medium 10^-7 M; for inhibition at 0.0025 µM: HepG2, Konzentration im Medium 2,5·10^-9 M
Text: Hemmung der Cholesterin Biosynthese
Die Hemmung der Cholesterin Biosynthese durch die erfindungsgemäßen Verbindungen wurde in Zellkulturversuchen mit HEP-G2-Zellen über die Wirkung auf den Einbau von ^14C-Natriumacetat in Cholesterin nachgewiesen. Dazu wurden Monolayers von HEP-G2-Zellen in lipoproteinfreiem Nährmedium mit entsprechenden Konzentrationen der erfindungsgemäßen Verbindungen eine Stunde vorinkubiert; nach Zugabe des^14C markierten Präkursors ^14C-Natriumacetat wurde die Inkubation für 3 Stunden fortgesetzt. Danach wurde ein Teil der Zellen alkalisch verseift, nach vorheriger Zugabe eines internen Standards von ^3H-Cholesterin. Die Lipide der verseiften Zellen wurden mit Chloroform-Methanol extrahiert. Dieses Lipidgemisch wurde nach Zusatz von Trägercholesterin präparativ dünnschichtchromatographisch getrennt, die Cholesterinbande nach dem Sichtbarmachen isoliert und die aus dem 14C-Präkursor gebildete Menge '^4C-Cholesterin szintigraphisch bestimmt. In einem aliquoten Teil der Zellen wurde Zellprotein bestimmt, so daß die in der Zeiteinheit pro mg Zellprotein aus 14C-Präkursor gebildete Menge an ^14C-Cholesterin berechnet werden konnte. Zum Vergleich für die Hemmwirkung einer zugesetzten erfindungsgemäßen Verbindung diente die Kontrolle, so daß direkt die Hemmung der Cholesterinbiosynthese bei einer bestimmten molaren Konzentration der erfindungsgemäßen Verbindung im Medium angegeben werden konnte. Zur Beurteilung der Wirkungstärke der erfindungsgemäßen Verbindungen wurde die Hemmwirkung von Lovastatin im selben Versuchsansatz bestimmt. In aliquoten Anteilen der Zellkultur wurde die Intaktheit der Zellkultur und die fehlende Zellschädigung durch Einwirkung der erfindungsgemäßen Verbindung morphologisch (Lichtmikroskop) beurteilt und biochemisch durch Bestimmung des Release von Laktat-Dehydrogenase ins Inkubationsmedium gemessen.
Das Ergebnis dieser Untersuchung ist in Tabelle 2 wiedergegeben. Die Wirkung der erfindungsgemäßen Substanzen als Cholesterin-Biosynthese-Hemmer ist deutlich zu erkennen. In den geprüften Konzentrationen hatten die erfindungsgemäßen Verbindungen im Zeitraum von 4 Stunden keine cytotoxische Wirkung.

Serumlipoproteine = assay: Chronic test in male rats: 7 daily oral doses, serum lipoproteins separated by preparative ultracentrifugation; format: in vivo, Ratte; conditions: for Vasoprotektiv Index HDL-C LDL-C: HDL-Cholesterin : LDL-Cholesterin, Kontrolle 3,24
Text: Die Hemmung der hepatischen Cholesterinbiosynthese hat Auswirkungen auf die Verminderung von Serum-Lipiden, wie im chronischen Versuch an der männlichen Ratte nachgewiesen werden konnte (Tabelle 2).
Gruppen männlicher Ratten des Stammes HOE: WISKf (SPF 71) mit einem Ausgangsgewicht von etwa 240 g erhielten täglich morgens die erfindungsgemäßen Verbindungen in Polyethylenglykol 400 per
Schlundsonde, wobei die jeweilige Kontrollgruppe nur das Vehikel erhielt. 24 Stunden nach der letzten (7.) Applikation und nach 24 Stunden Futterentzug wurde Blut entnommen und im gewonnen Serum die Lipoproteine aus dem Pool einer Rattengruppe mittels der präparativen Ultrazentrifugentechnik getrennt. Hierbei wurden folgende Dichtegrenzen für die Trennung von VLDL, LDL und HDL benutzt:
• VLDL = very low density lipoprotein • LDL = low density lipoprotein • HDL = high density lipoprotein
Für die Bestimmung des Cholesterins und der Triglyceride wurden vollenzymatische Methoden nach Boehringer/Mannheim benutzt, für die Bestimmung des Proteins die Methode von Lowry et al. J. Biol. Chem., 193, 265 (1951) herangezogen. […] Daraus resultiert eine Erhöhung des vasoprotektiven Index (HDL-Cholesterin : LDL-Cholesterin) mit einer ca. 8-fach höheren Potency als Clofibrat.

[1] = read-out: % Cholesterin-Biosynthese-Hemmung

CC[C@H](C)C(=O)O[C@H]1C[C@@H](C)C=C2C=C[C@H](C)[C@H](CC[C@@H]3C[C@@H](O)CC(=O)O3)[C@H]21 [Lovastatin, reference compound]
IC50 (HEP-G2-Zellen; HepG2, Lovastatin in the same experimental run as the substance of the row, read-out: Vergleichsreihe für Lovastatin im selben Versuchsansatz IC50): 10 nM

CC1CC2OC2C(OC(=O)c2ccccc2)CC(=O)CC(=O)O1 (centres unmarked) [II.3]
Beeinflussung der Serumlipoproteine im Vergleich zur Kontrollgruppe in % HDL-C (Serumlipoproteine; 30 mg/kg/Tag oral, 7 days): +22% | Beeinflussung der Serumlipoproteine im Vergleich zur Kontrollgruppe in % LDL-C (Serumlipoproteine; 30 mg/kg/Tag oral, 7 days): -19% | Beeinflussung der Serumlipoproteine im Vergleich zur Kontrollgruppe in % LDL-Protein (Serumlipoproteine; 30 mg/kg/Tag oral, 7 days): -14% | Beeinflussung der Serumlipoproteine im Vergleich zur Kontrollgruppe in % VLDL-C (Serumlipoproteine; 30 mg/kg/Tag oral, 7 days): -21% | Vasoprotektiv Index HDL-C LDL-C (Serumlipoproteine; 30 mg/kg/Tag oral, 7 days): 4,88 | Wirkung auf LDL, VLDL und HDL-Fraktion (in words) (Serumlipoproteine; 7-tägige orale Applikation, lower dose than Clofibrat): deutlichen Verminderung von LDL und VLDL, bei Erhöhung der HDL-Fraktion | Verträglichkeit (Anwendung der Substanz von den Ratten vertragen) (Serumlipoproteine; 7 days oral): anstandslos vertragen | Hepatomegalie (Serumlipoproteine; 7 days oral, in contrast to Clofibrat): keine Hepatomegalie | Erhöhung des vasoprotektiven Index (HDL-Cholesterin : LDL-Cholesterin): höhere Potency als Clofibrat (Serumlipoproteine; relative to Clofibrat, 7 days oral): ca. 8 -fach

CC1CC2OC2C(OC(=O)Nc2ccccc2)CC(=O)CC(=O)O1 (centres unmarked) [II.4, 2,4-Dioxo-10-methyl-1-oxa-6-(phenyl-amino-carbonyl-oxy)-7-cyclodecenoxid]
inhibition at 0.1 µM (HEP-G2-Zellen; [1]): 68%

CC(=O)OC1CC(=O)CC(=O)OC(C)CC2OC12 (centres unmarked) [II.1]
inhibition at 0.1 µM (HEP-G2-Zellen; [1]): 13%

CCC(=O)OC1CC(=O)CC(=O)OC(C)CC2OC12 (centres unmarked) [II.8]
inhibition at 0.0025 µM (HEP-G2-Zellen; [1]): 51% | inhibition at 0.1 µM (HEP-G2-Zellen; [1]): 69%

CC(C)CC(=O)OC1CC(=O)CC(=O)OC(C)CC2OC12 (centres unmarked) [II.10]
inhibition at 0.0025 µM (HEP-G2-Zellen; [1]): 48% | inhibition at 0.1 µM (HEP-G2-Zellen; [1]): 59%

CCCCCC(=O)OC1CC(=O)CC(=O)OC(C)CC2OC12 (centres unmarked) [II.13]
inhibition at 0.01 µM (HEP-G2-Zellen; HepG2, Konzentration im Medium 10^-8 M, read-out: % Cholesterin-Biosynthese-Hemmung): 44% | inhibition at 0.001 µM (HEP-G2-Zellen; HepG2, Konzentration im Medium 10^-9 M, read-out: % Cholesterin-Biosynthese-Hemmung): 37%

CCOC(=O)C(C)(C)Oc1ccc(Cl)cc1 [Clofibrat, reference compound]
Beeinflussung der Serumlipoproteine im Vergleich zur Kontrollgruppe in % HDL-C (Serumlipoproteine; 100 mg/kg/Tag oral, 7 days): -36% | Beeinflussung der Serumlipoproteine im Vergleich zur Kontrollgruppe in % HDL-Protein (Serumlipoproteine; 100 mg/kg/Tag oral, 7 days): -14% | Beeinflussung der Serumlipoproteine im Vergleich zur Kontrollgruppe in % LDL-C (Serumlipoproteine; 100 mg/kg/Tag oral, 7 days): -47% | Beeinflussung der Serumlipoproteine im Vergleich zur Kontrollgruppe in % LDL-Protein (Serumlipoproteine; 100 mg/kg/Tag oral, 7 days): -13% | Beeinflussung der Serumlipoproteine im Vergleich zur Kontrollgruppe in % VLDL-C (Serumlipoproteine; 100 mg/kg/Tag oral, 7 days): -56% | Vasoprotektiv Index HDL-C LDL-C (Serumlipoproteine; 100 mg/kg/Tag oral, 7 days): 3,87

CCCCC(=O)OC1CC(=O)CC(=O)OC(C)CC2OC12 (centres unmarked) [II.11, 6-Butylcarbonyloxy-2,4-dioxo-10-methyl-1-oxa-7-cyclodecenoxid]
inhibition at 0.0025 µM (HEP-G2-Zellen; [1]): 57% | inhibition at 0.1 µM (HEP-G2-Zellen; [1]): 73%

From patent EP0431480A2, “Substituted 10-ring-lactones, process for their preparation and their use” (HOECHST AKTIENGESELLSCHAFT, priority 1989, dated 1991)
